Drawing on ChEMBL document CHEMBL5291721, “A preclinical secondary pharmacology resource illuminates target-adverse drug reaction associations of marketed drugs” (Nat Commun, 2023), this text covers AC50 for ten molecules.

The structures appear in SMILES notation.

The target in one assay is T1, B2 bradykinin receptor (Homo sapiens, UniProt P30411).
T1 sequence (P30411 whole entry): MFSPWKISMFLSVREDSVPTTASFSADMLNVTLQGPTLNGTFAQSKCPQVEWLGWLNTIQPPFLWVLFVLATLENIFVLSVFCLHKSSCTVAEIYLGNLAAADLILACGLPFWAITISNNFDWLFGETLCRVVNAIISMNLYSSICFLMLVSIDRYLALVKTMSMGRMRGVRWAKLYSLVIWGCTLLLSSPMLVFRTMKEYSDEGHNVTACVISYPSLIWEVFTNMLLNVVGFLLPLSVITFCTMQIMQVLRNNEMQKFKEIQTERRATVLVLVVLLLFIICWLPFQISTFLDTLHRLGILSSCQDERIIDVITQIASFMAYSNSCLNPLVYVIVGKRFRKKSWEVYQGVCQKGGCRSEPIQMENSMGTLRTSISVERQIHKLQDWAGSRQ

Assay [1] has as its target T2, Muscarinic acetylcholine receptor M2 (Homo sapiens, UniProt P08172).
T2 sequence (P08172 whole entry): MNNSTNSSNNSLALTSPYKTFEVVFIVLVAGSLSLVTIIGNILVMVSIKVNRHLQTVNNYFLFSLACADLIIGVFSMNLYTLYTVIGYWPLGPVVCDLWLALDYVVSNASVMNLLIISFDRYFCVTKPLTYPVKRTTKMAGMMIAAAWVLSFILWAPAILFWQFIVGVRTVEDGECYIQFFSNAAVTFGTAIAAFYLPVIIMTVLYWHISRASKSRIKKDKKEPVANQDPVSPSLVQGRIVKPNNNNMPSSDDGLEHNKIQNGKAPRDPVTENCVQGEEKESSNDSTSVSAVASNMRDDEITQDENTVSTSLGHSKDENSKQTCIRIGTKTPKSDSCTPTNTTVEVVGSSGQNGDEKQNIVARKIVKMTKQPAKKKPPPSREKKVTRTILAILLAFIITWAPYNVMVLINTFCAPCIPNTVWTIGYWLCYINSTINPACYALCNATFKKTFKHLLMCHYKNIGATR
The format is functional, cell-based.

For assay [2], the target named is T3, Muscarinic acetylcholine receptor M1 (Homo sapiens, UniProt P11229).
T3 sequence (P11229 whole entry): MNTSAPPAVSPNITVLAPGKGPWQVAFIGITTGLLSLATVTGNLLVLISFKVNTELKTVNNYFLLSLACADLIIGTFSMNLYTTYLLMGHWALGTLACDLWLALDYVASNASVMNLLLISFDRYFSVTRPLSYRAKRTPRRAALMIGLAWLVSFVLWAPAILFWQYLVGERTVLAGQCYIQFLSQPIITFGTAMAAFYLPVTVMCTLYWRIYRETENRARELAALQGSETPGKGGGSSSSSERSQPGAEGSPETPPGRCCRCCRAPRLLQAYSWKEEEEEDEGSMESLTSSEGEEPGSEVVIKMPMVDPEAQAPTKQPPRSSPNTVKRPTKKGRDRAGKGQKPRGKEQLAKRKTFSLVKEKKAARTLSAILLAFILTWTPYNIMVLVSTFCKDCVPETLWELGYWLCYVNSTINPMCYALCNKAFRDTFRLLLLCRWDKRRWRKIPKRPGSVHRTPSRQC
The format is functional.

The target of the next assay is T4, Endothelin-1 receptor (Homo sapiens, UniProt P25101).
T4 sequence (P25101 whole entry): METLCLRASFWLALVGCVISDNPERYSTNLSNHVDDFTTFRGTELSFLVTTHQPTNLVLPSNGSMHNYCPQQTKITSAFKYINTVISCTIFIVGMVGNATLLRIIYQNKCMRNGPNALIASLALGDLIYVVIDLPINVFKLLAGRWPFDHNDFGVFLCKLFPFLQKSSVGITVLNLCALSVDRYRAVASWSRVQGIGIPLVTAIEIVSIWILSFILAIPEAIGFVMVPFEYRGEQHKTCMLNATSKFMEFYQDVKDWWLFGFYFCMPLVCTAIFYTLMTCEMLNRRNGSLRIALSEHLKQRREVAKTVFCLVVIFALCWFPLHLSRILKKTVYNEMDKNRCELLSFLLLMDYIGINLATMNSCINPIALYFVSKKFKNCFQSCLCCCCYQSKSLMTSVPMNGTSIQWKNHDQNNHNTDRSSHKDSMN

Assay [3] concerns the target Muscarinic acetylcholine receptor M3 (Homo sapiens, UniProt P20309).
For a further assay, the target named is T5, Adenosine receptor A3 (Homo sapiens, UniProt P0DMS8).
T5 sequence (P0DMS8 whole entry): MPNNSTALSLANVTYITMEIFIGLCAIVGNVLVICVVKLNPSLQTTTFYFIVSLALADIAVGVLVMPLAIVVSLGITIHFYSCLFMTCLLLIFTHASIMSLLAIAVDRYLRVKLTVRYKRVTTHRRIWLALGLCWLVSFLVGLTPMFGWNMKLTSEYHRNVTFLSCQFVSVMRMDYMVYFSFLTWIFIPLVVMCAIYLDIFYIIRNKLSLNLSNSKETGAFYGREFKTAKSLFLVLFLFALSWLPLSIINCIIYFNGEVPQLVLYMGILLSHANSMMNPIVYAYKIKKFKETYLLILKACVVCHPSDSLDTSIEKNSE

In assay [4] the target is Neuronal acetylcholine receptor subunit alpha-4 (Homo sapiens, UniProt P43681).
Chain of Neuronal acetylcholine receptor subunit alpha-4 (P43681 whole entry): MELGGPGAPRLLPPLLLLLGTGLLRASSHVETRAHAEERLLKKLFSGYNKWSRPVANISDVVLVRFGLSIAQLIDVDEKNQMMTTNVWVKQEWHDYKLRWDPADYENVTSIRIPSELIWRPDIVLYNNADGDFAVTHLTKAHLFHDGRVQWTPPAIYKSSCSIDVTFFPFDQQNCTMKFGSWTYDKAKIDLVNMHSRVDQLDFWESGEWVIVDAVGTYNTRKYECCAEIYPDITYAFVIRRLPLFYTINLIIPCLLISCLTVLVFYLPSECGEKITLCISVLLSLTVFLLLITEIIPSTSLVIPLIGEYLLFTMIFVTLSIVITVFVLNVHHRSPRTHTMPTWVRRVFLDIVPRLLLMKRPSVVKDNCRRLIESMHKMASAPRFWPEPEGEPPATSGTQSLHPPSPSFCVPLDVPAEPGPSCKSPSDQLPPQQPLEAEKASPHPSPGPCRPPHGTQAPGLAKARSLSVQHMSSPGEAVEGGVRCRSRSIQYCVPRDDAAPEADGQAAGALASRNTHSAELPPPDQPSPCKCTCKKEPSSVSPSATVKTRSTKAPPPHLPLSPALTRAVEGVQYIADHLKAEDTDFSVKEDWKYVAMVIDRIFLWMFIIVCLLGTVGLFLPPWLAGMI
In assay [5] the target is Growth hormone secretagogue receptor type 1 (Homo sapiens, UniProt Q92847).
Chain of Growth hormone secretagogue receptor type 1 (Q92847 whole entry): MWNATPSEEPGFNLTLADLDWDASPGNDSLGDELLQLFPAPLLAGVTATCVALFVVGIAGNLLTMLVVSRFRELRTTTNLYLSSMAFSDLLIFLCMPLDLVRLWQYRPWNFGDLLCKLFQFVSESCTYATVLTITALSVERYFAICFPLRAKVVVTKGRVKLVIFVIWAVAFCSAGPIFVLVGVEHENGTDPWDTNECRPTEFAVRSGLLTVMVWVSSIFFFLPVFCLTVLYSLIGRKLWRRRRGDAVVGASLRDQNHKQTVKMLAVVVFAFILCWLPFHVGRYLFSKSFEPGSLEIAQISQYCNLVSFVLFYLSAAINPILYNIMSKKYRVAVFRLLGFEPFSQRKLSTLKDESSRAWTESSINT
The target of assay [6] is T6, 5-hydroxytryptamine receptor 2B (Homo sapiens, UniProt P41595). The class given is functional, cell-based.
T6 sequence (P41595 whole entry): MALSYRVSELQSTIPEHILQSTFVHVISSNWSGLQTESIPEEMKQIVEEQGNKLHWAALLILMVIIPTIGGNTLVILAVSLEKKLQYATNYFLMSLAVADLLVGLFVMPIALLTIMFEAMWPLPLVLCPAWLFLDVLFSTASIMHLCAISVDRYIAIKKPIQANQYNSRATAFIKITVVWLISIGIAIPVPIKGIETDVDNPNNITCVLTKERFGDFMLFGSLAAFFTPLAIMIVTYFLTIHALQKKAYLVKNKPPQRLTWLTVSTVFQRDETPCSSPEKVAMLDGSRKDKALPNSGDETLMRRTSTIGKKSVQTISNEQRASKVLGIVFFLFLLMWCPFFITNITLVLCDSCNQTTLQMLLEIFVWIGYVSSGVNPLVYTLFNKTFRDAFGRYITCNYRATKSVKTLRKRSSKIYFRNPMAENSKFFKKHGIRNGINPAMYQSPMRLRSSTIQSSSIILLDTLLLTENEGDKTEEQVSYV
The target in assay [7] is T6, 5-hydroxytryptamine receptor 2B. The class given is functional, cell-based. This is another data set of the same source.
Assay [8] concerns the target 5-hydroxytryptamine receptor 2A (Homo sapiens, UniProt P28223). The class given is functional, cell-based.
Assay [9] deals with cGMP-inhibited 3',5'-cyclic phosphodiesterase 3A (Homo sapiens, UniProt Q14432). The format is functional.
Chain of cGMP-inhibited 3',5'-cyclic phosphodiesterase 3A (Q14432 whole entry): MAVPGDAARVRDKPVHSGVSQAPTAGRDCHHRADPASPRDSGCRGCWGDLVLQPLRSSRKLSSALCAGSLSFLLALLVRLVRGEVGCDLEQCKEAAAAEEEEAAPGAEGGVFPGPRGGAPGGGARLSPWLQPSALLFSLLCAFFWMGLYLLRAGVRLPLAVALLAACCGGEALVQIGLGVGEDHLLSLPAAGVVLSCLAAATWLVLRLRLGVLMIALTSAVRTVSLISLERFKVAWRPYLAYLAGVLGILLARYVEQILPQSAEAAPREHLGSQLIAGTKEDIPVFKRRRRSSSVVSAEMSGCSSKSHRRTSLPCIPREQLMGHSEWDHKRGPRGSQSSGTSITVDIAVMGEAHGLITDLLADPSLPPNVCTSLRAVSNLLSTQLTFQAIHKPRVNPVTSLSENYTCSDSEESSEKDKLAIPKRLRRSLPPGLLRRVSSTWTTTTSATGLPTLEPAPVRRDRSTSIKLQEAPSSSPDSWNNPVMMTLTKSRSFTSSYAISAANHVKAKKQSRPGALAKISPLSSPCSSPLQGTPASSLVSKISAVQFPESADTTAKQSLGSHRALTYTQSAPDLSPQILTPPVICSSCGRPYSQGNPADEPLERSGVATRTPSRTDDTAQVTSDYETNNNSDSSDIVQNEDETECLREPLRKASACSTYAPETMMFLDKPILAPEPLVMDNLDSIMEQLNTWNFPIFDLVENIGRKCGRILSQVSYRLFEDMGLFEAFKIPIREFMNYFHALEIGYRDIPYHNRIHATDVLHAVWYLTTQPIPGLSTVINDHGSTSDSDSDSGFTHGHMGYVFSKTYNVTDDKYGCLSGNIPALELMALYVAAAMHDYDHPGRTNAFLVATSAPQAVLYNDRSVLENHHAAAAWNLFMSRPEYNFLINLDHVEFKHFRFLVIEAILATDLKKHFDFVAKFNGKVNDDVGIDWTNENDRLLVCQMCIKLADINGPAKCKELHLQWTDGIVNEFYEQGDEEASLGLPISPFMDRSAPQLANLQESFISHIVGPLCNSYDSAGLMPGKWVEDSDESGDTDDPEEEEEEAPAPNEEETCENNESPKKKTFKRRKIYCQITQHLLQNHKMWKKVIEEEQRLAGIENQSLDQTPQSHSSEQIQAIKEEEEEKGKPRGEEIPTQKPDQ
Assay [10] deals with Beta-2 adrenergic receptor (Homo sapiens, UniProt P07550).
Chain of Beta-2 adrenergic receptor (P07550 whole entry): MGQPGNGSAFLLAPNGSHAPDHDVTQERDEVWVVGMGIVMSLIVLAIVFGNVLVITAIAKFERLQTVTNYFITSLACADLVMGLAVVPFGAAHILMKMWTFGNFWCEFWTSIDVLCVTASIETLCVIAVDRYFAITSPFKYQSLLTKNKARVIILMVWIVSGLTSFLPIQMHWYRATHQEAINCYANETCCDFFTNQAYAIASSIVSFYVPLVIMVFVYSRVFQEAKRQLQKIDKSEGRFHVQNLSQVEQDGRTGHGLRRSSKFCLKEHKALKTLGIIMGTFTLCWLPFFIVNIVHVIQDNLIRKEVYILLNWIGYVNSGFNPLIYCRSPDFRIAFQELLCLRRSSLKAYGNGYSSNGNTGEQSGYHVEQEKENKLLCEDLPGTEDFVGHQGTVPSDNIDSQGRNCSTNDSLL
Further: assay procedure not described here.

Chain of Muscarinic acetylcholine receptor M3 (P20309 whole entry): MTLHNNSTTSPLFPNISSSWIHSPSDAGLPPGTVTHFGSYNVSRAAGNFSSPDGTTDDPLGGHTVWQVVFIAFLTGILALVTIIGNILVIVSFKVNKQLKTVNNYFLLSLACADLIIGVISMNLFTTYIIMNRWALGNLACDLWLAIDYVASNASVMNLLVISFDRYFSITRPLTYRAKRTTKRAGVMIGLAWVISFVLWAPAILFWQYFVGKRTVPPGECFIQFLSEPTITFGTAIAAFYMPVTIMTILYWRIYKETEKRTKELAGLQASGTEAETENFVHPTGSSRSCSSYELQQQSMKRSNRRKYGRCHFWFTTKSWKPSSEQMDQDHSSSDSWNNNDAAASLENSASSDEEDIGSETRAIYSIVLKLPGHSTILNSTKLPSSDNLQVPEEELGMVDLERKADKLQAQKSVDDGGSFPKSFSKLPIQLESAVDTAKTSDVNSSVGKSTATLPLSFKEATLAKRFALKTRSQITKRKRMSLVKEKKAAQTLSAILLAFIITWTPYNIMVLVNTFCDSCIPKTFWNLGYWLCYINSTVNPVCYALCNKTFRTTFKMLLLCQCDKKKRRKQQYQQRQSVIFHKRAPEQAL
Chain of 5-hydroxytryptamine receptor 2A (P28223 whole entry): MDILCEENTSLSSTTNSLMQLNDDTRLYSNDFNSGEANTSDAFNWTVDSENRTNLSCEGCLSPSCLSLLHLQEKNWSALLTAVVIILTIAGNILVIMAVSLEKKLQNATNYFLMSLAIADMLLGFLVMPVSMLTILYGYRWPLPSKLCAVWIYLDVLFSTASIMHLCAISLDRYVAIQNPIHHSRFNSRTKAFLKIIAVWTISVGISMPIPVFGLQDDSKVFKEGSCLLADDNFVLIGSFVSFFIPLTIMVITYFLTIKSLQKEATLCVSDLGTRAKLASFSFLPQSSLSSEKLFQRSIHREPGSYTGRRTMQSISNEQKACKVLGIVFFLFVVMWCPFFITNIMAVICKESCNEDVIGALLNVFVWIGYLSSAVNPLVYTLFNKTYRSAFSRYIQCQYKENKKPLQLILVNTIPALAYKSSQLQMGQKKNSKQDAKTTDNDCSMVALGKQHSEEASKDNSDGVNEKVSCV

Turning to `Cc1ccc(-c2ncc(Cl)cc2-c2ccc(S(C)(=O)=O)cc2)cn1` [ETORICOXIB], the AC50 at B2 bradykinin receptor is above 30 µM; in assay [1] it was above 10 µM; in assay [2] it was above 10 µM; on Endothelin-1 receptor it was above 30 µM; in assay [3] it was above 10 µM; on Adenosine receptor A3 it was above 10 µM. For the same molecule, the AC50 in [4] is above 10 µM; in assay [5], above 10 µM; in [6] it was above 10 µM; in [7], above 10 µM; in assay [8], above 30 µM; in [9] it was above 10 µM. Further, in assay [10], the AC50 was above 10 µM.
As for `Cc1ccc(S(=O)(=O)NC(=O)N[C@H]2[C@H]3CC[C@@](C)([C@H]2O)C3(C)C)cc1` [GLIBORNURIDE], the AC50 (on B2 bradykinin receptor; in assay [1]; in assay [2]; on Endothelin-1 receptor; in assay [3]; on Adenosine receptor A3) was above 30 µM each time. In addition, the AC50 in [4], in assay [5], in [6], in [7], in assay [8] and in assay [9] was above 30 µM throughout. Besides, in assay [10], the AC50 was above 30 µM.
As for `COc1ccc2c3c1O[C@H]1C(=O)CC[C@H]4[C@@H](C2)N(C)CC[C@]314` [HYDROCODONE], the AC50 at B2 bradykinin receptor is above 30 µM; in assay [1], above 10 µM; in assay [2] it was above 10 µM; on Endothelin-1 receptor, above 30 µM; in assay [3], above 10 µM; on Adenosine receptor A3 it was above 30 µM. Moreover, the AC50 in assay [4] was above 10 µM; in assay [5], above 30 µM; in assay [6], above 10 µM; in [7], above 10 µM; in [8] it was above 30 µM; in [9], above 30 µM. Also, the AC50 in [10] was above 10 µM.
For the molecule `CCC(NC(C)C)C(O)c1ccc(O)c(O)c1` (stereo not given) [ISOETHARINE], the AC50 (at B2 bradykinin receptor; in assay [1]; in assay [2]; on Endothelin-1 receptor; in [3]; on Adenosine receptor A3) was above 30 µM each time. Besides, the AC50 in assay [4], in assay [5], in [6], in [7], in assay [8] and in [9] was above 30 µM in each case. In assay [10], this molecule gave an AC50 of 5.43 µM.
Regarding `CCN(CC)Cc1nccn1-c1ccc([N+](=O)[O-])cc1C(=O)c1ccccc1Cl` [NIZOFENONE], the AC50 (at B2 bradykinin receptor; in assay [1]; in assay [2]; at Endothelin-1 receptor; in assay [3]; on Adenosine receptor A3) was above 30 µM in each case. Also, the AC50 in [4] is 8.3 µM; in assay [5], above 30 µM; in [6], above 30 µM; in [7], above 30 µM; in [8] it was above 30 µM; in assay [9], above 30 µM. The same molecule had an AC50 in assay [10] above 30 µM.
Turning to `CC1NCCOC1c1ccccc1` (stereo not given) [PHENMETRAZINE], the AC50 was above 30 µM at B2 bradykinin receptor; above 10 µM in assay [1]; above 10 µM in [2]; above 30 µM at Endothelin-1 receptor; above 30 µM in [3]; above 30 µM at Adenosine receptor A3. Further, the AC50 in [4] was above 10 µM; in assay [5] it was above 30 µM; in [6] it was above 10 µM; in [7], 23 µM; in assay [8], above 30 µM; in assay [9], above 30 µM. In addition, the AC50 in assay [10] is above 10 µM.
Take `CC(C)(N)Cc1ccccc1` [PHENTERMINE]: the AC50 on B2 bradykinin receptor is above 30 µM; in assay [1] it was above 10 µM; in assay [2], above 10 µM; on Endothelin-1 receptor, above 30 µM; in assay [3], above 30 µM; on Adenosine receptor A3 it was above 30 µM. For the same molecule, the AC50 was above 10 µM in assay [4]; above 30 µM in assay [5]; above 10 µM in assay [6]; above 10 µM in assay [7]; above 30 µM in assay [8]; above 30 µM in assay [9]. In assay [10], this molecule yielded an AC50 above 10 µM.
On to `CCCCOC(=O)C(=O)Nc1cccc(-c2nnn[nH]2)c1` [TAZANOLAST], for which the half-maximal activity concentration (AC50) (at B2 bradykinin receptor; in [1]; in [2]; on Endothelin-1 receptor; in assay [3]; at Adenosine receptor A3) was above 30 µM throughout. The AC50 in [4], in assay [5], in assay [6], in assay [7], in [8] and in assay [9] was above 30 µM each time. The AC50 in [10] is above 30 µM.
Consider `CC1=C(/C=C/C(C)=C/C=C/C(C)=C/C(=O)Oc2c(C)c(C)c3c(c2C)CCC(C)(CCCC(C)CCCC(C)CCCC(C)C)O3)C(C)(C)CCC1` (stereo not given) [TRETINOIN TOCOFERIL], for which the AC50 (at B2 bradykinin receptor; in assay [1]; in assay [2]; at Endothelin-1 receptor; in assay [3]; on Adenosine receptor A3) was above 30 µM in each case. Besides, the AC50 in assay [4], in assay [5], in [6], in assay [7], in assay [8] and in [9] was above 30 µM each time. The molecule further showed an AC50 in assay [10] above 30 µM.
`CN(C)CCOCC(=O)NC12CC3CC(CC(C3)C1)C2` [TROMANTADINE]: the AC50 (at B2 bradykinin receptor; in assay [1]; in assay [2]; at Endothelin-1 receptor; in [3]; at Adenosine receptor A3) was above 30 µM in each case. The AC50 in assay [4], in assay [5], in assay [6], in [7], in assay [8] and in assay [9] was above 30 µM in each case. In assay [10], this molecule showed an AC50 above 30 µM.

One may read the AC50 as the concentration at which the activity in the assay is half-maximal. A higher AC50 goes with weaker potency.
